Test: xn = mol fraction of the nth substance listed
Settings: Fluid (supercritical or subcritical phases), Buoyancy - hydrostatic balance with magnetic suspension - one sinker

[Ar] [argon] + O=C=O
Settings | mass density [kg/m3]
373.22 K, 16970 kPa, x1 = 0.99 | 217.712
373.22 K, 18968 kPa, x1 = 0.99 | 242.204
373.22 K, 30957 kPa, x1 = 0.99 | 378.472
373.23 K, 22970 kPa, x1 = 0.99 | 289.853
373.23 K, 24965 kPa, x1 = 0.99 | 312.835
373.23 K, 26964 kPa, x1 = 0.99 | 335.305
373.24 K, 10977 kPa, x1 = 0.95 | 143.58
373.24 K, 14972 kPa, x1 = 0.99 | 192.822
373.24 K, 20969 kPa, x1 = 0.99 | 266.255
373.24 K, 28960 kPa, x1 = 0.99 | 357.169
373.25 K, 10978 kPa, x1 = 0.99 | 142.11
373.25 K, 12977 kPa, x1 = 0.99 | 167.627
373.28 K, 18969 kPa, x1 = 0.95 | 245.312
373.29 K, 16972 kPa, x1 = 0.95 | 220.418
373.29 K, 28963 kPa, x1 = 0.95 | 362.242
373.29 K, 30959 kPa, x1 = 0.95 | 383.847
373.3 K, 12975 kPa, x1 = 0.95 | 169.447
373.31 K, 14971 kPa, x1 = 0.95 | 195.043
373.31 K, 20969 kPa, x1 = 0.95 | 269.779
373.31 K, 26966 kPa, x1 = 0.95 | 340.003
373.32 K, 22966 kPa, x1 = 0.95 | 293.716
373.32 K, 24968 kPa, x1 = 0.95 | 317.167
398.26 K, 12977 kPa, x1 = 0.99 | 155.613
398.28 K, 10979 kPa, x1 = 0.99 | 132.065
398.28 K, 20968 kPa, x1 = 0.99 | 246.59
398.28 K, 30957 kPa, x1 = 0.99 | 350.842
398.29 K, 26962 kPa, x1 = 0.99 | 310.557
398.29 K, 28962 kPa, x1 = 0.99 | 330.96
398.3 K, 14970 kPa, x1 = 0.99 | 178.803
398.3 K, 18971 kPa, x1 = 0.99 | 224.388
398.3 K, 22969 kPa, x1 = 0.99 | 268.392
398.3 K, 24967 kPa, x1 = 0.99 | 289.714
398.31 K, 16969 kPa, x1 = 0.99 | 201.75
398.31 K, 26966 kPa, x1 = 0.95 | 314.455
398.31 K, 28963 kPa, x1 = 0.95 | 335.112
398.33 K, 14977 kPa, x1 = 0.95 | 180.735
398.33 K, 24965 kPa, x1 = 0.95 | 293.233
398.33 K, 30959 kPa, x1 = 0.95 | 355.238
398.34 K, 22971 kPa, x1 = 0.95 | 271.617
398.35 K, 18973 kPa, x1 = 0.95 | 226.932
398.35 K, 20972 kPa, x1 = 0.95 | 249.488
398.36 K, 12973 kPa, x1 = 0.95 | 157.068
398.36 K, 16970 kPa, x1 = 0.95 | 203.95
398.37 K, 10980 kPa, x1 = 0.95 | 133.275
423.22 K, 10980 kPa, x1 = 0.99 | 123.515
423.22 K, 16967 kPa, x1 = 0.99 | 188.325
423.23 K, 14969 kPa, x1 = 0.99 | 166.982
423.24 K, 12971 kPa, x1 = 0.99 | 145.339
423.28 K, 18967 kPa, x1 = 0.99 | 209.329
423.3 K, 20973 kPa, x1 = 0.99 | 230.071
423.3 K, 22965 kPa, x1 = 0.99 | 250.298
423.3 K, 30956 kPa, x1 = 0.99 | 327.48
423.31 K, 12974 kPa, x1 = 0.95 | 146.65
423.32 K, 24968 kPa, x1 = 0.95 | 273.195
423.33 K, 10981 kPa, x1 = 0.95 | 124.535
423.33 K, 14975 kPa, x1 = 0.95 | 168.571
423.33 K, 24964 kPa, x1 = 0.99 | 270.201
423.33 K, 26968 kPa, x1 = 0.95 | 292.962
423.33 K, 28959 kPa, x1 = 0.99 | 308.785
423.34 K, 18970 kPa, x1 = 0.95 | 211.466
423.34 K, 26961 kPa, x1 = 0.99 | 289.685
423.34 K, 28966 kPa, x1 = 0.95 | 312.296
423.35 K, 16970 kPa, x1 = 0.95 | 190.146
423.35 K, 20971 kPa, x1 = 0.95 | 232.422
423.35 K, 30960 kPa, x1 = 0.95 | 331.165
423.36 K, 22968 kPa, x1 = 0.95 | 252.983

From the NIST ThermoML archive (doi:10.1016/j.jct.2015.07.014)
